Reference: patent US4072685A, “3-(3',4'-Disubstituted) phenyl piperidines” (Roussel Uclaf, priority 1975, dated 1978)
Structures can show the parent of a compound that is named as a salt.

Key:
[1] = test system: nigrostriatal bundle (dopaminergic activity); assay: Rotating behavior after unilateral injury of nigrostriatal bundle, test (b): 6-hydroxydopamine lesion of substantia nigra; type: in vivo; settings: i.p., male rats, 1 1/2 hours
Method: (§1) Among the animals having undergone a unilateral lesion of nigrostriatal bundle, the substances, having a dopaminergic activity induce a rotating behavior. The animals were male rats weighing about 250 g and female mice weighing about 22 g. The lesion was effected in test (a) in the right striatum of the male rats with a 2 mA anodic current for a duration of 30 seconds /Anden et al, Acta. Pharmacol. Toxicol., Vol. 24 (1966), p. 263-274/. The tested compounds were administered intraperitoneally to groups of 6 animals and they were individually placed in a rotometer which counted the number of rotations of each animal in two directions. Each test was continued for 11/2 hours.
In test (b) with the male rats, lesion was effected in the substantia nigra of each rat with 6-hydroxydopamine monohydrochloride at a dose of 20 μg per 4 μl of physiological serum containing 0.2 mg/ml of ascorbic acid by the method of Ungerstedt /Acta. physiol. scand., 1971 a, supp 367, p. 69-93/and the same conditions as in (a) were used.

[2] = Acute toxicity (50% lethal dose); settings: mouse, in vivo, ip, mice, mortality 48 hours after administration
Method: The 50% lethal dose (LD50) was determined for the products after intraperitoneal administration to mice and the mortality was determined 48 hours after the administration of the tested product.

[3] = test system: reserpinic rigidity; assay: Antagonism against reserpinic rigidity (electromyogram provoked by dorsiflexion of the foot); type: in vivo, rats; set-up: key to Antagonism against reserpine: expressed in an increasing number of + as a function of the dose in mg/Kg; ++: expressed in an increasing number of + as a function of the dose in mg/Kg; +++: expressed in an increasing number of + as a function of the dose in mg/Kg; settings: for Antagonism against reserpine: i.v., rats; for Antagonism against reserpinic rigidity, in words: results of Table I, Examples 5, 6 and 7 at a dose of 20 mg/kg
Method: The antagonism of the tested products against reserpinic rigidity was determined in rats using the procedure of Jurna I: Arch. Pharmak. Exp. Path., Vol. 260 (1968), p. 80-88 and the electromyogram (EMG) provoked by a dorsiflexion of the foot was determined with electrodes placed on the muscles of the anterior loge of the hind foot of the animal. A dose of 10 mg/Kg of reserpine was administered intraveinously and 30 minutes later when the muscle hypertonicity was maximal, the tested product was administered intraveinously at a dose of 10 or 20 mg/Kg. The electromyogram responses were determined before and after the administration of the tested compound and were compared for their intensity and duration.

[4] = test system: nigrostriatal bundle (dopaminergic activity); assay: Rotating behavior after unilateral injury of nigrostriatal bundle, test (a): anodic lesion of right striatum; type: in vivo; settings: i.p., male rats, 1 1/2 hours
Method: as §1

[5] = test system: nigrostriatal bundle (dopaminergic activity); assay: Rotating behavior after unilateral injury of nigrostriatal bundle, test (c): striatum lesion by aspiration; type: in vivo; settings: 100 mg/kg, i.p., female mice, observed for an hour
Method: as §1, with “Each test was continued for 11/2 hours.” left out
In test (c) with female mice, a lesion of the striatum was effected with a hypodermic needle with a diameter of 0.5 mm by aspiration under vacuum for 5 seconds with the method of Lotti /Life Science, Vol. 10 (1971) I, p. 781-789/.

[6] = test system: carotid blood pressure; assay: Hypotensive activity (carotid blood pressure, anesthetized rats); type: in vivo, male rats, Sprague-Dawley S.P.F.; settings: i.v.
Method: The hypotensive activity was determined on male rats of the Sprague-Dawley S.P.F. strain weighing about 300 g and anesthesized with nembutal at an intraveinous dose of 50 mg/kg. The test product was administered intraveinously into the jugular vein and the carotid blood pressure was measured before and after the administration of the tested compound. The variation in the arterial pressure after the administration of the tested compound as compared to the initial arterial pressure as well as the time necessary for the pressure to return to the initial value were determined.

SMILES	rotations, test (b) ([1]; 25 mg/kg)	LD50 at 48 h [2] [mg/kg]	Antagonism against reserpine ([3]; 20 mg/kg)	rotations, test (a) ([4]; 25 mg/kg)	Antagonism against reserpinic rigidity, in words [3]	further results
C=CCN1CCCC(c2ccc(O)c(O)c2)C1 (stereo not drawn) [Example 10, N-allyl-3-(3',4'-dihydroxyphenyl)-piperidine hydrobromide]	contralateral rotations	150				
CCCN1CCCC(c2ccc(O)c(O)c2)C1 (stereo not drawn) [Example 4, N-propyl-3-(3',4'-dihydroxyphenyl)-piperidine hydrobromide]		150	+			
CCCN1CCCC(c2ccc(OC(C)=O)c(OC(C)=O)c2)C1 (stereo not drawn) [Example 8, N-propyl-3-(3',4'-diacetoxyphenyl)-piperidine oxalate]	contralateral rotations	250	++	ipsilateral rotations		
Oc1ccc(C2CCCN(Cc3ccccc3)C2)cc1O (stereo not drawn) [Example 5, N-benzyl-3-(3',4'-dihydroxyphenyl)-piperidine oxalate]	contralateral rotations	150	+++	ipsilateral rotation	very active	rotation, test (c) [5]: ipsilateral rotation
CC(C)N1CCCC(c2ccc(O)c(O)c2)C1 (stereo not drawn) [Example 9, N-isopropyl-3-(3',4'-dihydroxyphenyl)-piperidine hydrobromide]		150	+			
CC(=O)Oc1ccc(C2CCCN(Cc3ccccc3)C2)cc1OC(C)=O (stereo not drawn) [Example 6, N-benzyl-3-(3',4'-diacetoxyphenyl)-piperidine oxalate]	contralateral rotations	300	+++	ipsilateral rotation	very active	rotation, test (c) [5]: ipsilateral rotation; duration of hypotension ([6]; 10 mg/kg, hypotension of 20 to 30%): more than one hour
CN1CCCC(c2ccc(O)c(O)c2)C1 (stereo not drawn) [Example 1, N-methyl-3-(3',4'-dihydroxyphenyl)-piperidine hydrobromide]		150	++			
Oc1ccc(C2CCCN(CCc3ccccc3)C2)cc1O (stereo not drawn) [Example 7, N-(β-phenylethyl)-3-(3',4'-dihydroxyphenyl)-piperidine fumarate]		150			very active	Antagonism against reserpine ([3]; 10 mg/kg): ++; rotations, test (a) ([4]; 10 mg/kg): ipsilateral rotations; rotations, test (b) ([1]; 10 mg/kg): contralateral rotations; duration of hypotension ([6]; 0.1 mg/kg, hypotension of 5 to 10%): 10 min; hypotension ([6]; 1 mg/kg): 30%; duration of hypotension ([6]; 1 mg/kg, hypotension of 30%): more than an hour
CCN1CCCC(c2ccc(O)c(O)c2)C1 (stereo not drawn) [Example 3, N-ethyl-3-(3',4'-dihydroxyphenyl)-piperidine hydrobromide]	contralateral rotations	150	+	ipsilateral rotations		
CC(=O)Oc1ccc(C2CCCN(C)C2)cc1OC(C)=O (stereo not drawn) [Example 2, N-methyl-3-(3',4'-diacetoxyphenyl)-piperidine oxalate]		150	++			
